Source: patent US20260265244A1, “HETEROCYCLIC COMPOUNDS AS STING ANTAGONISTS” (Boehringer Ingelheim International GmbH, priority 2022, published 2026)

Legend:
[1] = molecular target: T1, human STING WT (R232) (Homo sapiens, UniProt Q86WV6, H232R); test: Human STING HTRF binding assay (competitive, Cisbio 64BDSTGPEG)
T1 construct: purchased Cisbio 64BDSTGPEG
Procedure: Binders to human STING WT (R232) were identified using a competitive HTRF assay format (Cisbio 64BDSTGPEG), which uses d2-labeled STING ligand, a 6His (SEQ ID NO: 2) tagged human STING protein, and an anti 6His (SEQ ID NO: 2) Cryptate-labeled antibody. Compounds compete with the STING ligand-d2 and thereby prevents FRET from occurring, which can be measured by an EnVision™ reader (PerkinElmer).
Assay method: Compounds were delivered as 10 mM DMSO solution, serially diluted by an Agilent Bravo Workstation and transferred to the 384 well assay plate (Perkin Elmer #6005359) using a Cybiwell dispenser. Typically, 8 concentrations were used with the highest concentration at 10 μM or 1 μM in the final assay volume followed by ~1:5 dilution steps. DMSO concentration was set to 1% in the final assay volume. The 384 well assay plate contained 20 test compounds and DMSO in column 23 and 24. A cGAMP standard dilution row was prepared according to the manufacturer and transferred to each assay plate. After transfer of compound solution or dilution buffer for negative (high) and positive (low) controls, 5 μl of the human STING protein (cyclic binding domain (residues 138-379) of the WT R232 human version, fused to a 6 His tag (SEQ ID NO: 2) at the Nter part; 1:50 dilution in detection buffer) were dispensed to all wells except of the positive control, which received detection buffer only. Plates were the centrifuged for 20 sec at 1000 rpm. After that, 10 μl of Anti-6His-Cryptate antibody/Sting ligand-d2 mix was added to all wells using a Multidrop combi dispenser, followed by another sec/1000 rpm centrifugation step. After an incubation of the plates for 180 min at room temperature, […] at […] (HTRF ratio) was measured using an Envison Reader (PerkinElmer).
Data evaluation and calculation: For data evaluation and calculation, HTRF ratios were calibrated using the cGAMP standard curve. After that, the measurement of the low control was set as 0% control and the measurement of the high control was set as 100% control. The IC50 values were calculated using the standard 4 parameter logistic regression formula. Calculation: [y=(a−d)/(1+(x/c)^b)+d], a=low value, d=high value; x=conc M; c=IC50 M; b=slope;

[2] = test system: STING inhibition in human whole blood (IFNα2α production); test: Human whole blood assay (HWBA): cGAMP-stimulated IFNα2α production; assay type: cell-based; conditions: Homo sapiens
Procedure: For the detection of STING inhibition in physiological environment human whole blood was stimulated by the cyclic dinucleotide cGAMP. Pathway activity was monitored by measuring the IFNα2α production.
Assay method: Compounds were delivered as 10 mM DMSO solution and serial diluted and transferred to the 96-well Cell culture Plate (Corning #3595), prefilled with 20 μl OptiMEM (Gibco #11058-021) in each well, using an Echo acoustic dispenser. Typically, 8 concentrations were used with the highest concentration at 10 μM in the final assay volume followed by ~1:5 dilution steps. DMSO concentration was set to 0.1% in the final assay volume. The 96 well assay plate contained 9 test compounds, a reference compound and DMSO in control wells.
Collection of human whole blood from 3 or more healthy donors (male or female, no medication for 7 days, exception contraceptive and thyroxine) as Na-citrate blood (e.g. 3.8% in Monovettes from Sarstedt) is conducted in parallel. Whole blood was kept at room temperature for a maximum of 3 hours after collection until use in the assay.
160 μl of the whole blood samples were transferred to each well of the 96-well assay plates filled with compound/OptiMEM. All assay plates are prepared as duplicates with blood from different donors. Blood plates were kept at room temperature for 60 minutes and continuous shaking with 450 rpm, covered with the lid, but not sealed.
A 10× cGAMP assay solution was diluted from a 2 mM stock solution in 1×HBSS immediately before use at room temperature. 20 μl of the 10× cGAMP/HBSS were added to all compound and all high control wells, whereas HBSS only was added to all low control wells.
After covering assay plates with aera seals and the lid, blood plates were kept at room temperature for 30 minutes and continuous shaking with 450 rpm, followed by an overnight incubation of 22 h at 37° C. in the incubator, without shaking.
For the detection of IFNα-2α in human plasma, the biotinylated capture antibody (Antibody set IFNA2, Meso Scale Diagnostics #B21VH-3, including coating and capture antibody) was diluted 1:17.5 in Diluent 100 (Meso Scale Diagnostics #R50AA-4, according to the manufacturer. U-Plex MSD GOLD 96-well Small Spot Streptavidin SECTOR Plates (Meso Scale Diagnostics #L45SA-5) were coated with 25 μl diluted capture antibody. Coated plates were incubated for 60 min at room temperature under continuous shaking at 700 rpm. MSD IFNα-2α plates were washed three times with 150 μl wash buffer (1×HBSS, 0.05% Tween).
After blocking the plates with 100 μl block solution/well (1×HBSS with 0.2% Tween, 2% BSA) for 60 min at room temperature and continuous shaking at 700 rpm, plates were emptied as dry as possible by dumping just before continuing with the human plasma. Whole Blood assay plates were centrifuged at 1600 rpm for 10 minutes. 25 μl of supernatant was transferred with a pipetting robotics from each whole blood plate to the corresponding IFNα-2α plate. Plates were sealed with microplate seals and kept at room temperature again under continuous shaking at 700 rpm for two hours. Next MSD IFNα-2α plates were washed three times with 150 μl wash buffer (1×HBSS, 0.05% Tween), before adding 25 μl MSD SULFO-TAG IFNα-2α Antibody solution (1:100 diluted in Diluent 3 (Meso Scale Diagnostics #R50AP-2) to each well of the plates. Afterwards plates were sealed with microplate seals and kept at room temperature again under continuous shaking at 700 rpm for two hours. Finally MSD IFNα-2α plates were washed three times with 150 μl wash buffer (1×HBSS, 0.05% Tween). 150 μl 2×Read buffer was added to each well and plates were immediately measured with the MSD Sector S600 Reader using the vendor barcode.
Data evaluation and calculation: For data evaluation and calculation, % control calculation of each well was based on the mean of high (cGAMP stimulated control) and mean of low (unstimulated control) controls by using the following formula: […]

T1 sequence (Q86WV6 138-379 H232R): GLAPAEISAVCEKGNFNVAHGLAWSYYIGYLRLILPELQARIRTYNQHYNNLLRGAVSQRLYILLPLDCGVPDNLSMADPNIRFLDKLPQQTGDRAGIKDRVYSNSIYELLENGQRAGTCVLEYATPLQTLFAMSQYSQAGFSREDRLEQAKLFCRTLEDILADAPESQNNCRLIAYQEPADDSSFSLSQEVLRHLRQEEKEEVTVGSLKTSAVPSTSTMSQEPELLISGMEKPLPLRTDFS

IC50 [1] [nM]	IC50 [2] [nM]	SMILES
19.3	130	Cc1c(C2CC2)c(-c2c(F)ccc3nn(C[C@H](O)c4ccccc4)cc23)nn1-c1cc2cn(C)nc2nc1C1CC1 [Example 35, (1R)-2-[4-(4-cyclopropyl-1-{6-cyclopropyl-2-methyl-2H-pyrazolo[3,4-b]pyridin-5-yl}-5-methyl-1H-pyrazol-3-yl)-5-fluoro-2H-indazol-2-yl]-1-phenylethan-1-ol]
22.2	160	Cc1nc2nn(CCCN3CCOCC3)cc2cc1-n1nc(-c2cccc3nn(C[C@H](F)c4ccccc4)cc23)c(C(C)C)c1C [Example 49, 2-[(2R)-2-fluoro-2-phenylethyl]-4-(5-methyl-1-{6-methyl-2-[3-(morpholin-4-yl)propyl]-2H-pyrazolo[3,4-b]pyridin-5-yl}-4-(propan-2-yl)-1H-pyrazol-3-yl)-2H-indazole]
10.8	330	Cc1nc2nn(CC(O)CO)cc2cc1-n1nc(-c2cccc3nn(C[C@H](O)c4ccccc4)cc23)c(C(C)C)c1C (stereo partly drawn) [Example 67, 3-[5-(3-{2-[(2R)-2-hydroxy-2-phenylethyl]-2H-indazol-4-yl}-5-methyl-4-(propan-2-yl)-1H-pyrazol-1-yl)-6-methyl-2H-pyrazolo[3,4-b]pyridin-2-yl]propane-1,2-diol]
16.9	140	Cc1nc2nn(C)cc2cc1-n1nc(-c2cccc3nn(C[C@H](O)c4ccc(F)c(F)c4)cc23)c(C(C)C)c1C [Example 44, (1R)-1-(3,4-difluorophenyl)-2-[4-(1-{2,6-dimethyl-2H-pyrazolo[3,4-b]pyridin-5-yl}-5-methyl-4-(propan-2-yl)-1H-pyrazol-3-yl)-2H-indazol-2-yl]ethan-1-ol]
19.1	300	Cc1nc2nn(Cc3ncnn3C)cc2cc1-n1nc(-c2cccc3nn(C[C@H](O)c4ccccc4)cc23)c(C(C)C)c1C [Example 62, (1R)-2-[4-(5-methyl-1-{6-methyl-2-[(1-methyl-1H-1,2,4-triazol-5-yl)methyl]-2H-pyrazolo[3,4-b]pyridin-5-yl}-4-(propan-2-yl)-1H-pyrazol-3-yl)-2H-indazol-2-yl]-1-phenylethan-1-ol]
9.3	44	Cc1nc2nn(CC(F)F)cc2cc1-n1nc(-c2cccc3nn(C[C@H](O)c4ccccc4)cc23)c(C(C)C)c1C [Example 103, (1R)-2-(4-{1-[2-(2,2-difluoroethyl)-6-methyl-2H-pyrazolo[3,4-b]pyridin-5-yl]-5-methyl-4-(propan-2-yl)-1H-pyrazol-3-yl}-2H-indazol-2-yl)-1-phenylethan-1-ol]
4.9	85	Cc1nc2nn(CCCN3CCCC3=O)cc2cc1-n1nc(-c2cccc3nn(C[C@H](O)c4ccccc4)cc23)c(C(C)C)c1C [Example 21, 1-{3-[5-(3-{2-[(2R)-2-hydroxy-2-phenylethyl]-2H-indazol-4-yl}-5-methyl-4-(propan-2-yl)-1H-pyrazol-1-yl)-6-methyl-2H-pyrazolo[3,4-b]pyridin-2-yl]propyl}pyrrolidin-2-one]
18.1	97	Cc1ccc([C@@H](O)Cn2cc3c(-c4nc(-c5cc6cn(C)nc6nc5C(C)C)n(C)c4C4CC4)cccc3n2)cc1 [Example 25, (1R)-2-(4-{5-cyclopropyl-1-methyl-2-[2-methyl-6-(propan-2-yl)-2H-pyrazolo[3,4-b]pyridin-5-yl]-1H-imidazol-4-yl}-2H-indazol-2-yl)-1-(4-methylphenyl)ethan-1-ol]
3.6	40	Cc1nc2nn(C)cc2cc1-n1nc(-c2cccc3nn(C[C@H](O)c4ccccc4)cc23)c(C(C)C)c1C [Example 102, (1R)-2-[4-(1-{2,6-Dimethyl-2H-pyrazolo[3,4-b]pyridin-5-yl}-5-methyl-4-(propan-2-yl)-1H-pyrazol-3-yl)-2H-indazol-2-yl]-1-phenylethan-1-ol]
8.3	85	Cn1cc2cc(-c3nc(-c4cccc5nn(C[C@H](O)c6ccccc6)cc45)c(C4CC4)n3C)c(C3CC3(F)F)nc2n1 (stereo partly drawn) [Example 110, (1R)-2-(4-{5-cyclopropyl-2-[6-(2,2-difluorocyclopropyl)-2-methyl-2H-pyrazolo[3,4-b]pyridin-5-yl]-1-methyl-1H-imidazol-4-yl}-2H-indazol-2-yl)-1-phenylethan-1-ol]
3.1	31	Cc1nc2nn(CC#N)cc2cc1-n1nc(-c2cccc3nn(C[C@H](O)c4ccccc4)cc23)c(C(C)C)c1C [Example 98, 2-[5-(3-{2-[(2R)-2-hydroxy-2-phenylethyl]-2H-indazol-4-yl}-5-methyl-4-(propan-2-yl)-1H-pyrazol-1-yl)-6-methyl-2H-pyrazolo[3,4-b]pyridin-2-yl]acetonitrile]
7.6	300	Cc1c(C(C)C)c(-c2cccc3nn(C[C@H](O)c4ccccc4)cc23)nn1-c1cc2cn(C)nc2nc1C(F)F [Example 64, (1R)-2-(4-{1-[6-(difluoromethyl)-2-methyl-2H-pyrazolo[3,4-b]pyridin-5-yl]-5-methyl-4-(propan-2-yl)-1H-pyrazol-3-yl}-2H-indazol-2-yl)-1-phenylethan-1-ol]
14.5	110	Cc1nc2nn(C)cc2cc1-n1nc(-c2cccc3nn(C[C@H](OCF)c4ccccc4)cc23)c(C(C)C)c1C [Example 27, 4-(1-{2,6-dimethyl-2H-pyrazolo[3,4-b]pyridin-5-yl}-5-methyl-4-(propan-2-yl)-1H-pyrazol-3-yl)-2-[(2R)-2-(fluoromethoxy)-2-phenylethyl]-2H-indazole]
2	49	Cn1c(-c2cc3cn(CCC#N)nc3nc2C2CC2)nc(-c2cccc3nn(C[C@H](O)c4ccccc4)cc23)c1C1CC1 [Example 104, 3-[6-cyclopropyl-5-(5-cyclopropyl-4-{2-[(2R)-2-hydroxy-2-phenylethyl]-2H-indazol-4-yl}-1-methyl-1H-imidazol-2-yl)-2H-pyrazolo[3,4-b]pyridin-2-yl]propanenitrile]
